Data from patent EP0403301B1, “Aerosols of pyrido[1,2-a]pyrimidine compounds” (TOKYO TANABE COMPANY LIMITED, priority 1989, dated 1990).
Values after ≈ are worked out from the molar mass of the structure shown.

Assays:
Type in all cases: physicochemical
solubility in water = experiment: solubility in water
Method: (§1) Inhalations for use as antiallergic agents include aqueous solution type aerosol inhalations, solution type aerosol inhalations and suspension type aerosol inhalations. The solubilities of pyrido[1,2-a]pyrimidine compounds in water are very low. For example, the solubility of 9-[(4-acetyl-3-hydroxy-2-n-propylphenoxy)methyl]-3-(1H-tetrazol-5-yl)-4H-pyrido[1,2-a]pyrimidin-4-one (hereinafter referred to as AS-35) in water is as low as 0.4 µg/ml. Accordingly, it would be impractical to prepare an aqueous solution type aerosol inhalation of AS-35, because this would require massive containers and devices. Moreover, in order to prepare a solution type aerosol inhalation of a pyrido[1,2-a]pyrimidine compound, it must be dissolved in a propellant or a mixture of a propellant and a commonly used solubilizing agent. […] Moreover, AS-35 is also insoluble in mixtures of such propellants and commonly used solubilizing agents. Thus, it is impossible to prepare a solution type aerosol inhalation of AS-35.

[1] = solubility in propellants and in propellant/solubilizing agent mixtures; conditions: Freon 11, 12, 13, 21, 22, 113, 114, 115, 123, 124, 132b, 133a, 134a, 141b, 142b, 152a, 225ca, 225cb, C318
Method: as §1

[2] = dispersibility and cohesiveness of fine particles in propellant with dispersant (naked eye); conditions: AS-148 in place of AS-35
Method: First of all, a series of experiments were carried out to evaluate the effectiveness of conventional dispersants. More specifically, various ester forms of non-ionic surfactants which are non-irritating to the site of application were tested by using an aerosol composition consisting of finely powdered AS-35 and a propellant comprising a 4:6 mixture of Freon 11 and Freon 12. Thus, the solubility of the dispersants in the propellant, the dispersibility of fine particles, the cohesiveness of fine particles, and variation in the amount delivered were examined.
Among the aforesaid test items, the solubility of a dispersant in the propellant was evaluated by placing 90 mg of the dispersant in a transparent container made of polyethylene terephthalate (hereinafter referred to as PET), attaching a valve thereto, injecting the propellant (i.e., a 4:6 mixture of Freon 11 and Freon 12) thereinto until the contents amounted to 12.0 g, shaking the container vigorously, and then observing the contents with the naked eye. […]

Row | solubility (solubility in water) | solubility in commonly used propellants [1] | results of Table 1 (dispersibility, cohesiveness with conventional dispersants) [2] | Compound
1 | 0.4 µg/mL (≈ 0.951 µM) | entirely insoluble | – | CCCc1c(OCc2cccn3c(=O)c(-c4nnn[nH]4)cnc23)ccc(C(C)=O)c1O [AS-35, 9-[(4-acetyl-3-hydroxy-2-n-propylphenoxy)methyl]-3-(1H-tetrazol-5-yl)-4H-pyrido[1,2-a]pyrimidin-4-one]
2 | – | – | exactly the same results as AS-35 | CCCc1c(OCc2cccn3c(=O)c(CC(=O)O)cnc23)ccc(C(C)=O)c1O [AS-148, [9-(4-acetyl-3-hydroxy-2-n-propylphenoxymethyl)-4-oxo-pyrido[1,2-a]pyrimidin-3-yl]-acetic acid]
